Measured values: PubChem BioAssay (NCI)
Values joined by “and” are separate entries in the source; they are usually repeats but may differ in a detail not shown here. Equal entries are not always repeated.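 Cultured in 96-well plates, cells were exposed to test compound for 48 hours across five concentrations. GI50 = concentration required for 50% inhibition of growth. Definition used: TGI = concentration required for complete inhibition of growth.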

Assays:
Test in all cases: NCI tumour cell line growth inhibition, 48 h
[1] = test system: NCI-H226 lung
[2] = test system: ACHN renal
[3] = test system: MOLT-4 leukemia
[4] = test system: HT29 colon
[5] = test system: OVCAR-8 ovarian
[6] = test system: MCF7 breast
[7] = test system: SF-295 CNS
[8] = test system: SNB-19 CNS
[9] = test system: TK-10 renal
[10] = test system: SF-268 CNS

Structure (SMILES) | GI50 [1] [µM] | TGI [1] | GI50 [2] [µM] | TGI [2] [µM] | GI50 [3] [µM] | TGI [3] [µM] | GI50 [4] [µM] | TGI [4] | GI50 [5] [µM] | TGI [5] [µM] | GI50 [6] [µM] | TGI [6] [µM] | GI50 [7] [µM] | TGI [7] [µM] | GI50 [8] [µM] | TGI [8] | GI50 [9] [µM] | TGI [9] [µM] | GI50 [10] [µM] | TGI [10]
COc1ccc2c(c1)C(=O)c1c-2n(CCCN)c(=O)c2ccccc12 | 0.0441 | 0.122 µM | < 0.0134 | 0.0408 | < 0.01 | < 0.0243 | < 0.0298 | 0.188 µM | 0.0113 | 0.162 | < 0.01 | 1.07 | 0.015 | 0.657 | < 0.0198 | 0.105 µM | 0.116 | 0.98 | 0.045 | 1.09 µM
CC/C(Cc1ccccc1)=C(\c1ccc(OCCN2CCCCCC2)cc1)c1ccc(OC(=O)NCc2ccccc2)cc1 | 8.14 | 17.5 µM | 1.49 | 5.34 | 1.15 | 3.78 | 1.34 | 3.53 µM | 1.67 | 4.96 | 0.25 | 5.33 | 6.5 | 13.2 | 3.7 | 10.4 µM | 8.2 | 16 | 4.23 | 11.3 µM
COc1ccc(C#Cc2ccccc2C#CCCCCO)cc1 | 17.3 | 36.1 µM | 21.7 | 45 | 18.3 | 39.2 | 12.3 | 24.8 µM | 18.1 | 38.6 | 27.2 | 59.1 | 18.7 | 34.6 | 21.4 | 36.9 µM | 16.7 | 35.2 | 21.7 | 42.9 µM
O=S(=O)(Nc1ncccn1)c1ccc(N=Nc2ccc(O)c3ncccc23)cc1 | 13.4 | 30.5 µM | 5.18 | 24.4 | 5.68 | 51.2 | 22.6 | 78 µM | 3.6 | 27.2 | 5.67 | 29.4 | 2.89 | 12 | 6.83 | > 100 µM | – | – | 9.14 | 87 µM
CN1C(=O)c2c(ccc3c2OCO3)C2C(O)Cc3cc4c(cc3C21)OCO4 (stereo unspecified) | – | 5.93 µM | – | > 100 | – | 20 | – | 10.1 µM | – | 22.9 | – | > 100 | – | 4.63 | – | > 100 µM | – | > 100 | – | > 100 µM
COc1cccc([C@H]2CC(=O)c3cc4c(cc3N2)OCO4)c1 | 0.226 | > 100 µM | 0.0763 | > 100 | 0.0316 | 0.0821 | – | 0.425 µM | – | – | 0.0568 | > 100 | 0.0958 | > 100 | – | 1.81 µM | – | > 100 | 4.7 | > 100 µM
CC1[C@@H]2[C@@H](C=C3C4CCC5Cc6nc7c(nc6C[C@@]5(C)C4C[C@H](O)[C@]32CO)CC2CCC3C4=C[C@H]5O[C@@]6(O[C@@](C)(CO)C[C@@H]6O)C(C)[C@@]5(O)[C@]4(C)[C@@H](O)CC3[C@]2(C)C7)O[C@]12CCC(C)(C)O2 (stereo partly specified) | 0.00626 | 0.543 µM and > 3.65 µM | – | – | – | 0.0161 | 0.00302 | 0.44 µM and 0.414 µM | > 3.65 | > 3.65 | – | 0.505 | < 0.000365 | – | 0.0264 | 0.603 µM and > 3.65 µM | – | – | 0.00304 | 0.945 µM and 0.0972 µM
